Experimental data published in patent publication US7658928B2, “Method of vaccination comprising administering an antigen and a cathelicidin derived antimicrobial peptide” (Intercell AG, priority 2000, dated 2010).

What was measured:
[1] = test system: immature and mature dendritic cells; conditions: Yang, Chen et al. 2001; cited from earlier work
CD4+ T cells = conditions: Agerberth, Charo et al. 2000; De, Chen et al. 2000; cited from earlier work
[2] = test system: peripheral blood monocytes; conditions: utilizing formyl peptide receptor-like 1 (FPRL1) (De, Chen et al. 2000); cited from earlier work
neutrophils = conditions: Agerberth, Charo et al. 2000; De, Chen et al. 2000; cited from earlier work
mast cells = mast cells (Niyonsaba, Someya et al. 2001); cited from earlier work
[3] = test system: human CD1a positive dendritic cells; test: TRANSloading of human dendritic cells with MHC class I and MHC class II peptides by LL-37; format: cell-based
Description: To compare the efficiency of peptide delivery of these diverse “carrier-peptides”, the amount of peptide uptake into APCs was monitored by incubating P388D1 cells (murine monocyte-macrophage antigen presenting cell line; purchased from ATCC (TIB-63), or human CD1a positive (derived from human HLA-A2 positive donors, CD14+ positive PBMCS) dendritic cells, for 1 h at 37° C. with a constant amount of fuorescein-tagged peptide alone or in combination with diverse “carrier-peptides” at concentrations indicated. Before analysing the cells by flow cytometry, the cells were washed extensively to remove free peptide. The relative amount of fluorescein-tagged peptide taken up by the cells was measured by flow-cytometry.
FIG. 8a • (1) no peptide (cells alone) • (2) 2.5 μg FL-[…] (SEQ ID NO:23) (MHC class I; peptide alone) • (3) 2.5 μg FL-[…] (SEQ ID NO:23) (MHC class I)+30 μg LL-37 (SEQ ID:2)
FIG. 8b • (1) no peptide (cells alone) • (2) 2.5 μg FL-[…] (SEQ ID NO:24) (MHC class II; peptide alone) • (3) 2.5 μg FL-[…] (SEQ ID NO:24) (MHC class II)+30 μg LL-37 (SEQ ID:2)

[4] = test system: P388D1 cells (murine monocyte-macrophage antigen presenting cell line); test: TRANSloading assay: uptake of fluorescein-tagged antigenic peptide into P388D1 cells with carrier-peptides, flow cytometry; format: cell-based; conditions: for uptake of antigens in dendritic cells: summary statement, cells of mice
[5] = test system: IFN-γ-producing specific cells (TRP-2 181-188 VYDFFVWL); test: IFN-γ ELISpot after vaccination of mice with TRP-2 peptide plus carrier-peptide; format: in vivo, mice (C57BL/6); conditions: s.c. days 0, 7, 14, 100 μg VYDFFVWL + carrier-peptide, two weeks after 3rd vaccination, versus peptide alone or peptide plus poly-L-arginine; for IFN-γ-producing specific cells, splenocytes: FIG. 10
Description: The groups of mice were injected as follows (amounts indicated/per mouse). • (1) 100 μg […] (SEQ ID NO:25) • (2) 100 μg […] (SEQ ID NO:25)+100 μg poly-L-arginine • (3) 100μ […] (SEQ ID NO:25)+[…] cathelicidin derived antimicrobial peptide (SEQ ID NO:1) • (4) 100 μg […] (SEQ ID NO:25)+500 μg bovine indolicidin (SEQ ID NO:3)
Two weeks after the 3rd vaccination, draining (inguinal) lymph nodes and spleens were removed and […].

tumor growth = conditions: co-injection with an appropriate peptide as a vaccine, mouse models (Schmidt, Buschle et al. 1997); cited from earlier work

## LL-37: human cathelicidin derived antimicrobial peptide, C-terminal domain of hCAP-18 (LLGDFFRKSKEKIGKEFKRIVQRIKDFLRNLVPRTES)
[1]
  chemotactic activity for immature and mature dendritic cells: no chemotactic activity
CD4+ T cells
  chemotactic activity for CD4+ T cells: exert chemotactic activity
[2]
  chemotaxis of peripheral blood monocytes: induces chemotaxis
neutrophils
  chemotactic activity for neutrophils: exert chemotactic activity
Mast cells
  histamine release: shown to induce
  intracellular calcium mobilization: shown to induce
[3]; FIG. 8a, 2.5 μg FL-[…] + 30 μg LL-37
  pulsing of human dendritic cells with MHC class I antigenic peptide: to a significant extent
[3]; FIG. 8b, 2.5 μg FL-[…] + 30 μg LL-37
  pulsing of human dendritic cells with MHC class II antigenic peptide: to a significant extent
[3]; summary statement, cells of men
  uptake of antigens in dendritic cells: enhance the uptake of antigens

## NH2-ILPWKWPWWPWRR-CONH2 [bovine indolicidin]
[4]
  uptake of antigens in dendritic cells: enhance the uptake of antigens
[5]; FIG. 9
  IFN-γ-producing specific cells, lymph node cells: more IFN-γ-producing specific cells
[5]
  IFN-γ-producing specific cells, splenocytes: more IFN-γ-producing specific cells

## PR-39: porcine proline-arginine-rich 39-amino-acid cathelicidin peptide (RRRPRPPYLPRPRPPPFFPPRLPPRIPPGFPPRFPPRFPGKR) [reference compound]
neutrophils
  chemotactic activity for neutrophils: exert chemotactic activity

## bovine dodecapeptide: bovine cathelicidin derived antimicrobial dodecapeptide, SEQ ID NO:4, linear form in Example 3 (RLCRIVVIRVCR)
[4]; Example 3, FIG. 6, 2 μg FL-LFEAIEGFI + 18.75, 37.5, 75, 150 μg linear bovine dodecapeptide
  pulsing effect with increasing amounts of carrier-peptide: increased significantly
[4]
  uptake of antigens in dendritic cells: enhance the uptake of antigens

## murine cathelicidin derived antimicrobial peptide: murine cathelin-related antimicrobial peptide, SEQ ID NO:1 (SRLAGLLRKGGEKIGEKLKKIGQKIKNFFQKL)
[4]
  uptake of antigens in dendritic cells: enhance the uptake of antigens
[5]
  IFN-γ-producing specific cells, splenocytes: more IFN-γ-producing specific cells

## poly-L-arginine
Tumor growth
  protection from tumor growth: protects animals from tumor growth

## poly-L-lysine
Tumor growth
  protection from tumor growth: protects animals from tumor growth
